Measurements: article PMC11163866 (Journal of medicinal chemistry, 2024)

Experiments:
[1] = In vitro metabolic stability in mouse liver microsomes; format: in vitro ADME; conditions: 1 μM; 0.5 mg/mL microsomes; up to 60 min
[2] = In vitro metabolic stability in human liver microsomes; format: in vitro ADME; conditions: 1 μM; 0.5 mg/mL microsomes; up to 60 min

SMILES | metabolic stability (t1/2, min) vs MLM [1] [min] | metabolic stability (t1/2, min) vs HLM [2] [min]
CCCCCCN/C=C1\N=C(c2ccc[nH]2)C=C1OC.Cl [compound 42] | 10.2 | 17.1
COC1=CC(c2ccc[nH]2)=N/C1=C\NC1CCCCCC1.Cl [compound 45] | 8.20 | 52.1
COC1=CC(c2ccc[nH]2)=N/C1=C\NCC1CCCCCC1.Cl [compound 46, (Z)-1-Cycloheptyl-N-((4'-methoxy-1H,5'H-[2,2'-bipyrrol]-5'-ylidene)methyl)-methanamine Hydrochloride] | 12.3 | 18.6
COC1=CC(c2ccc[nH]2)=N/C1=C\N[C@H]1CC[C@H](C)CC1.Cl [compound 47, (1r,4r)-N-((Z)-(4'-Methoxy-1H,5'H-[2,2'-bipyrrol]-5'-ylidene)methyl)-4-methylcyclohexan-1-amine Hydrochloride] | 11.4 | 17.3
COC1=CC(c2ccc[nH]2)=N/C1=C\N[C@H]1CC[C@H](C(F)(F)F)CC1.Cl [compound 48, (1r,4r)-N-((Z)-(4'-Methoxy-1H,5'H-[2,2'-bipyrrol]-5'-ylidene)methyl)-4-(trifluoromethyl)cyclohexan-1-amine Hydrochloride] | 15.4 | 13.0
COC1=CC(c2ccc[nH]2)=N/C1=C\Nc1ccc(C)cc1.Cl [compound 52, (Z)-N-((4'-Methoxy-1H,5'H-[2,2'-bipyrrol]-5'-ylidene)methyl)-4-methylaniline Hydrochloride] | 28.9 | 
COC1=CC(c2ccc[nH]2)=N/C1=C\Nc1ccc(OC(F)(F)F)cc1.Cl [compound 54, (Z)-N-((4'-Methoxy-1H,5'H-[2,2'-bipyrrol]-5'-ylidene)methyl)-4-(trifluoromethoxy)aniline Hydrochloride] | 45.1 | > 60.0
COC1=CC(c2ccc[nH]2)=N/C1=C\Nc1cccc(Cl)c1.Cl [compound 57, (Z)-3-Chloro-N-((4'-methoxy-1H,5'H-[2,2'-bipyrrol]-5'-ylidene)methyl)aniline Hydrochloride] | 42.0 | > 60.0
COC1=CC(c2ccc[nH]2)=N/C1=C\Nc1cccc(OC(F)(F)F)c1.Cl [compound 58, (Z)-N-((4'-Methoxy-1H,5'H-[2,2'-bipyrrol]-5'-ylidene)methyl)-3-(trifluoromethoxy)aniline Hydrochloride] | 15.8 | > 60.0
COC1=CC(c2ccc[nH]2)=N/C1=C\Nc1ccc(Cl)c(Cl)c1.Cl [compound 60, (Z)-3,4-Dichloro-N-((4'-methoxy-1H,5'H-[2,2'-bipyrrol]-5'-ylidene)methyl)aniline Hydrochloride] | 46.7 | 56.2
COC1=CC(c2ccc[nH]2)=N/C1=C\Nc1ccc(Cl)c(OC)c1.Cl [compound 61, (Z)-4-Chloro-3-methoxy-N-((4'-methoxy-1H,5'H-[2,2'-bipyrrol]-5'-ylidene)methyl)aniline Hydrochloride] | > 60.0 | > 60.0
COC1=CC(c2ccc[nH]2)=N/C1=C\Nc1ccc(F)c(OC)c1.Cl [compound 62, (Z)-4-Fluoro-3-methoxy-N-((4'-methoxy-1H,5'H-[2,2'-bipyrrol]-5'-ylidene)methyl)aniline Hydrochloride] | 19.1 | > 60.0
COC1=CC(c2ccc[nH]2)=N/C1=C\Nc1ccc2c(c1)OCCO2.Cl [compound 63, (Z)-N-((4'-Methoxy-1H,5'H-[2,2'-bipyrrol]-5'-ylidene)methyl)-2,3-dihydrobenzo[b][1,4]dioxin-6-amine Hydrochloride] | 15.8 | > 60.0
Cl.FC(F)(F)Oc1ccc(OC2=CC(c3ccc[nH]3)=N/C2=C\NC23CC4CC(CC(C4)C2)C3)cc1 [compound 70, (3s,5s,7s)-N-((Z)-(4'-(4-(Trifluoromethoxy)phenoxy)-1H,5'H-[2,2'-bipyrrol]-5'-ylidene)methyl)adamantan-1-amine Hydrochloride] | > 60.0 | > 60.0
Cl.Fc1cc(F)cc(OC2=CC(c3ccc[nH]3)=N/C2=C\NC23CC4CC(CC(C4)C2)C3)c1 [compound 74, (3s,5s,7s)-N-((Z)-(4'-(3,5-Difluorophenoxy)-1H,5'H-[2,2'-bipyrrol]-5'-ylidene)methyl)adamantan-1-amine Hydrochloride] | > 60.0 | > 60.0
Cl.Clc1ccc(OC2=CC(c3ccc[nH]3)=N/C2=C\NC23CC4CC(CC(C4)C2)C3)cc1 [compound 77, (3s,5s,7s)-N-((Z)-(4'-(4-Chlorophenoxy)-1H,5'H-[2,2'-bipyrrol]-5'-ylidene)methyl)adamantan-1-amine Hydrochloride] | > 60 | > 60

SMILES | metabolic stability (t1/2, min) vs MLM [1] [min] | metabolic stability (t1/2, min) vs HLM [2] [min]
Cl.FC(F)(F)Oc1ccc(C2=CC(c3ccc[nH]3)=N/C2=C\NC23CC4CC(CC(C4)C2)C3)cc1 [compound 80, (3s,5s,7s)-N-((Z)-(4'-(4-(Trifluoromethoxy)phenyl)-1H,5'H-[2,2'-bipyrrol]-5'-ylidene)methyl)adamantan-1-amine Hydrochloride] | > 60.0 | > 60.0
CC1=C/C(=C\NC23CC4CC(CC(C4)C2)C3)N=C1c1ccc[nH]1.Cl [compound 88] | 17.6 | > 60.0
CC1=C(C)/C(=C/NC2CCCCCC2)N=C1c1ccc[nH]1.Cl [compound 90] | 11.2 | 45.1
C(/NC1CCCCCC1)=C1/N=C(c2ccc[nH]2)C2=C1CCCC2.Cl [compound 102] | 9.71 | > 60.0
C(/NCC1CCCCCC1)=C1/N=C(c2ccc[nH]2)C2=C1CCCC2.Cl [compound 104, (Z)-1-(3-(1H-Pyrrol-2-yl)-4,5,6,7-tetrahydro-1H-isoindol-1-ylidene)-N-(cycloheptylmethyl)methanamine Hydrochloride] | > 60.0 | > 60.0
Cc1ccc(N/C=C2\N=C(c3ccc[nH]3)C3=C2CCCC3)cc1.Cl [compound 105, (Z)-N-((3-(1H-Pyrrol-2-yl)-4,5,6,7-tetrahydro-1H-isoindol-1-ylidene)methyl)-4-methylaniline Hydrochloride] | 31.2 | 42.1
COc1ccc(Oc2ccc(N/C=C3\N=C(c4ccc[nH]4)C4=C3CCCC4)cc2)cc1.Cl [compound 108, (Z)-N-((3-(1H-Pyrrol-2-yl)-4,5,6,7-tetrahydro-1H-isoindol-1-ylidene)methyl)-4-(4-methoxyphenoxy)aniline Hydrochloride] | > 60.0 | > 60.0
Cc1ccc(Oc2ccc(N/C=C3\N=C(c4ccc[nH]4)C4=C3CCCC4)cc2)cc1.Cl [compound 109, (Z)-N-((3-(1H-Pyrrol-2-yl)-4,5,6,7-tetrahydro-1H-isoindol-1-ylidene)methyl)-4-(p-tolyloxy)aniline Hydrochloride] | > 60.0 | > 60.0
CC1=C(C)/C(=C/NC2CCCCCC2)N=C1c1ccc(CC(C)C)[nH]1.Cl [compound 111, (Z)-N-((5-Isobutyl-3',4'-dimethyl-1H,5'H-[2,2'-bipyrrol]-5'-ylidene)methyl)cycloheptanamine Hydrochloride] | > 60.0 | > 60.0
CCc1ccc(C2=N/C(=C\NC3CCCCCCC3)C(C)=C2C)[nH]1.Cl [compound 112, (Z)-N-((5-Ethyl-3',4'-dimethyl-1H,5'H-[2,2'-bipyrrol]-5'-ylidene)methyl)cyclooctanamine Hydrochloride] | > 60.0 | > 60.0
CCc1c[nH]c(C2=N/C(=C\NC3CCCCCC3)C(C)=C2C)c1.Cl [compound 113, (Z)-N-((4-Ethyl-3',4'-dimethyl-1H,5'H-[2,2'-bipyrrol]-5'-ylidene)methyl)cycloheptanamine Hydrochloride] |  | > 60.0
CCc1c(C)[nH]c(C2=N/C(=C\NC34CC5CC(CC(C5)C3)C4)C(C)=C2C)c1C.Cl [compound 116] | 29.0 | > 60.0
CCc1ccc(C2=N/C(=C\NC3CCCCCC3)C(OC)=C2)[nH]1.Cl [compound 117, (Z)-N-((5-Ethyl-4'-methoxy-1H,5'H-[2,2'-bipyrrol]-5'-ylidene)methyl)cycloheptanamine Hydrochloride] | 7.98 | > 60.0
COC1=CC(c2ccc(-c3ccc(OC)cc3)[nH]2)=N/C1=C\NC1CCCCCC1.Cl [compound 118, (Z)-N-((4'-Methoxy-5-(4-methoxyphenyl)-1H,5'H-[2,2'-bipyrrol]-5'-ylidene)methyl)cycloheptanamine Hydrochloride] | > 60.0 | > 60.0
COC1=CC(c2ccc(Cc3ccc(OC)cc3)[nH]2)=N/C1=C\NC1CCCC1.Cl [compound 119, (Z)-N-((4'-Methoxy-5-(4-methoxybenzyl)-1H,5'H-[2,2'-bipyrrol]-5'-ylidene)methyl)cyclopentanamine Hydrochloride] | 10.4 | 11.7
COC1=CC(c2ccc(Cc3ccc(OC)cc3)[nH]2)=N/C1=C\NC1CCCCC1.Cl [compound 120, (Z)-N-((4'-Methoxy-5-(4-methoxybenzyl)-1H,5'H-[2,2'-bipyrrol]-5'-ylidene)methyl)cyclohexanamine Hydrochloride] | 13.8 | 19.7
